# In patent publication US20260262643A1, “HERBICIDAL BENZOXAZINES” (FMC CORPORATION, priority 2022, published 2026):
# How the values were obtained:
# green foxtail [1] = assay: Test C preemergence; format: in vivo, Setaria viridis; settings: for Foxtail, Green plant response rating: preemergence; for Plant response rating, Foxtail, Green: Preemergence
# Outline: (§1)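 Greenhouse herbicide screen, 10-day duration. Test chemicals in solvent/surfactant blend were sprayed onto soil at sowing (pre) or onto 2–10 cm seedlings at one to two leaves (post); injury scored visually against controls, 0 no effect to 100 complete control.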
# pigweed, palmer [2] = assay: Test C preemergence; format: in vivo, Amaranthus palmeri; settings: for Pigweed, Palmer plant response rating: preemergence; for Plant response rating, Pigweed, Palmer: Preemergence
# Outline: as §1
# kochia [3] = assay: Test C postemergence; format: in vivo, Bassia scoparia; settings: 10 days
# Outline: as §1
# barnyardgrass [4] = assay: Test C preemergence; format: in vivo, Echinochloa crusgalli; settings: for Barnyardgrass plant response rating: preemergence; for Plant response rating, Barnyardgrass: Preemergence
# Outline: as §1
# ryegrass, Italian [5] = assay: Test C preemergence; format: in vivo, Lolium multiflorum; settings: for Ryegrass, Italian plant response rating: preemergence; for Plant response rating, Ryegrass, Italian: Preemergence
# Outline: as §1
# kochia [6] = assay: Test C preemergence; format: in vivo, Bassia scoparia; settings: for Plant response rating, Kochia: Preemergence
# Outline: as §1
# barnyardgrass [7] = assay: Test D flooded paddy test; format: in vivo, Echinochloa crus-galli; settings: 250 g ai/ha, applied to paddy water, visual rating after 13 to 14 days, scale 0 to 100 (0 no effect, 100 complete control)
# Outline: (§2)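 Seedlings reached the 2-leaf stage, then pots were flooded to 3 cm over the soil surface. Compound was applied into the water, depth was maintained, and plants stayed in the greenhouse 13 to 14 days before visual scoring (0–100) relative to controls.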
# ragweed [8] = assay: Test C preemergence; format: in vivo, Ambrosia artemisiifolia; settings: for Ragweed plant response rating: preemergence; for Plant response rating, Ragweed: Preemergence
# Outline: as §1
# blackgrass [9] = assay: Test C postemergence; format: in vivo, Alopecurus myosuroides; settings: 10 days
# Outline: as §1
# galium = assay: Test C postemergence; format: in vivo, Galium aparine; settings: 10 days
# Outline: as §1
# rice = assay: Test D flooded paddy test; format: in vivo, Oryza sativa; settings: 250 g ai/ha, applied to paddy water, visual rating after 13 to 14 days, scale 0 to 100 (0 no effect, 100 complete control)
# Outline: as §2
# ragweed [10] = assay: Test C postemergence; format: in vivo, Ambrosia artemisiifolia; settings: 10 days
# Outline: as §1
# wheat [11] = assay: Test C preemergence; format: in vivo, Triticum aestivum; settings: for Wheat plant response rating: preemergence; for Plant response rating, Wheat: Preemergence
# Outline: as §1
# pigweed, palmer [12] = assay: Test C postemergence; format: in vivo, Amaranthus palmeri; settings: 10 days
# Outline: as §1
# corn [13] = assay: Test C preemergence; format: in vivo, Zea mays; settings: for Corn plant response rating: preemergence; for Plant response rating, Corn: Preemergence
# Outline: as §1
# sedge, umbrella = assay: Test D flooded paddy test; format: in vivo, Cyperus difformis; settings: 250 g ai/ha, applied to paddy water, visual rating after 13 to 14 days, scale 0 to 100 (0 no effect, 100 complete control)
# Outline: as §2
# green foxtail [14] = assay: Test C postemergence; format: in vivo, Setaria viridis; settings: 10 days
# Outline: as §1
# oat, wild [15] = assay: Test C postemergence; format: in vivo, Avena fatua; settings: 10 days
# Outline: as §1
# wheat [16] = assay: Test C postemergence; format: in vivo, Triticum aestivum; settings: 10 days
# Outline: as §1
# corn [17] = assay: Test C postemergence; format: in vivo, Zea mays; settings: 10 days
# Outline: as §1
# ducksalad = assay: Test D flooded paddy test; format: in vivo, Heteranthera limosa; settings: 250 g ai/ha, applied to paddy water, visual rating after 13 to 14 days, scale 0 to 100 (0 no effect, 100 complete control)
# Outline: as §2
# barnyardgrass [18] = assay: Test C postemergence; format: in vivo, Echinochloa crusgalli; settings: 10 days
# Outline: as §1
# horseweed = assay: Test C postemergence; format: in vivo, Erigeron canadensis; settings: 10 days
# Outline: as §1
# blackgrass [19] = assay: Test C preemergence; format: in vivo, Alopecurus myosuroides; settings: for Blackgrass plant response rating: preemergence; for Plant response rating, Blackgrass: Preemergence
# Outline: as §1
# soybean [20] = assay: Test C preemergence; format: in vivo, Glycine max; settings: for Soybean plant response rating: preemergence; for Plant response rating, Soybean: Preemergence
# Outline: as §1
# oat, wild [21] = assay: Test C preemergence; format: in vivo, Avena fatua; settings: for Oat, Wild plant response rating: preemergence; for Plant response rating, Oat, Wild: Preemergence
# Outline: as §1
# soybean [22] = assay: Test C postemergence; format: in vivo, Glycine max; settings: 10 days
# Outline: as §1
# ryegrass, Italian [23] = assay: Test C postemergence; format: in vivo, Lolium multiflorum; settings: 10 days
# Outline: as §1
# [24] = 500 g ai/ha, 0 to 100 scale (0 no effect, 100 complete control)
# [25] = 125 g ai/ha, 0 to 100 scale, 0 no effect, 100 complete control
# [26] = 500 g ai/ha, postemergence, 0 to 100 scale (0 no effect, 100 complete control)
# [27] = Postemergence, 125 g ai/ha, 0 to 100 scale (0 no effect, 100 complete control)
# [28] = 500 g ai/ha, visual rating after 10 days, 0 to 100 scale (0 no effect, 100 complete control)
# [29] = Test C, 125 g ai/ha, 0 to 100 scale (0 no effect, 100 complete control)
# [30] = 125 g ai/ha, postemergence, 0 to 100 scale, 0 no effect, 100 complete control
# [31] = Postemergence, 500 g ai/ha, visual 0 to 100 scale (0 no effect, 100 complete control)
smiles,measurement,setting,value
CCOC(=O)c1ncn(-c2ccc(C)c(C(=O)N3C[C@H](C)Oc4c(Cl)cccc43)c2)n1 [Compound 342],"Foxtail, Green plant response rating",green foxtail [1]; [24],90
same,"Plant response rating, Foxtail, Green",green foxtail [1]; [25],40
same,"Pigweed, Palmer plant response rating","pigweed, palmer [2]; [24]",70
same,"Plant response rating, Pigweed, Palmer","pigweed, palmer [2]; [25]",30
same,"Plant response rating, Kochia",kochia [3]; [26],60
same,"Plant response rating, Kochia",kochia [3]; [27],40
same,Barnyardgrass plant response rating,barnyardgrass [4]; [24],60
same,"Plant response rating, Barnyardgrass",barnyardgrass [4]; [25],20
same,"Ryegrass, Italian plant response rating","ryegrass, Italian [5]; [24]",80
same,"Plant response rating, Ryegrass, Italian","ryegrass, Italian [5]; [25]",70
same,Kochia plant response rating,"kochia [6]; 500 g ai/ha, preemergence, 0 to 100 scale (0 no effect, 100 complete control)",0
same,"Plant response rating, Kochia",kochia [6]; [25],0
same,"Plant response rating, Barnyardgrass (Flood)",barnyardgrass [7],0
same,Ragweed plant response rating,ragweed [8]; [24],20
same,"Plant response rating, Ragweed",ragweed [8]; [25],0
same,"Plant response rating, Blackgrass",blackgrass [9]; [26],80
same,"Plant response rating, Blackgrass",blackgrass [9]; [27],60
same,"Plant response rating, Galium",galium; [26],80
same,"Plant response rating, Galium",galium; [27],70
same,"Plant response rating, Rice (Flood)",rice,15
same,"Plant response rating, Ragweed",ragweed [10]; [26],80
same,"Plant response rating, Ragweed",ragweed [10]; [27],50
same,Wheat plant response rating,wheat [11]; [24],30
same,"Plant response rating, Wheat",wheat [11]; [25],0
same,"Plant response rating, Pigweed, Palmer","pigweed, palmer [12]; [26]",100
same,"Plant response rating, Pigweed, Palmer","pigweed, palmer [12]; [27]",90
same,Corn plant response rating,corn [13]; [24],20
same,"Plant response rating, Corn",corn [13]; [25],0
same,"Plant response rating, Sedge, Umbrella (Flood)","sedge, umbrella",15
same,"Plant response rating, Foxtail, Green",green foxtail [14]; [26],90
same,"Plant response rating, Foxtail, Green",green foxtail [14]; [27],80
same,"Plant response rating, Oat, Wild","oat, wild [15]; [26]",80
same,"Plant response rating, Oat, Wild","oat, wild [15]; [27]",70
same,"Plant response rating, Wheat",wheat [16]; [26],80
same,"Plant response rating, Wheat",wheat [16]; [27],70
same,"Plant response rating, Corn",corn [17]; [26],70
same,"Plant response rating, Corn",corn [17]; [27],70
same,"Plant response rating, Ducksalad (Flood)",ducksalad,10
same,"Plant response rating, Barnyardgrass",barnyardgrass [18]; [26],70
same,"Plant response rating, Barnyardgrass",barnyardgrass [18]; [27],60
same,"Plant response rating, Horseweed",horseweed; [26],50
same,"Plant response rating, Horseweed",horseweed; [27],10
same,Blackgrass plant response rating,blackgrass [19]; [24],50
same,"Plant response rating, Blackgrass",blackgrass [19]; [25],20
same,Soybean plant response rating,soybean [20]; [24],10
same,"Plant response rating, Soybean",soybean [20]; [25],10
same,"Oat, Wild plant response rating","oat, wild [21]; [24]",80
same,"Plant response rating, Oat, Wild","oat, wild [21]; [25]",20
same,"Plant response rating, Soybean",soybean [22]; [26],90
same,"Plant response rating, Soybean",soybean [22]; [27],100
same,"Plant response rating, Ryegrass, Italian","ryegrass, Italian [23]; [26]",70
same,"Plant response rating, Ryegrass, Italian","ryegrass, Italian [23]; [27]",70
COC[C@H]1CN(C(=O)c2cc(-n3cncn3)ccc2C)c2cccc(Cl)c2O1 [Compound 263],"Plant response rating, Foxtail, Green",green foxtail [1]; [28],100
same,"Foxtail, Green plant response rating",green foxtail [1]; [29],90
same,"Plant response rating, Pigweed, Palmer","pigweed, palmer [2]; [28]",100
same,"Pigweed, Palmer plant response rating","pigweed, palmer [2]; [29]",70
same,"Plant response rating, Kochia",kochia [3]; [30],70
same,"Plant response rating, Kochia",kochia [3]; [31],70
same,"Plant response rating, Barnyardgrass",barnyardgrass [4]; [28],90
same,Barnyardgrass plant response rating,barnyardgrass [4]; [29],70
same,"Plant response rating, Ryegrass, Italian","ryegrass, Italian [5]; [28]",90
same,"Ryegrass, Italian plant response rating","ryegrass, Italian [5]; [29]",80
same,"Plant response rating, Kochia",kochia [6]; [28],70
same,"Plant response rating, Barnyardgrass (Flood)",barnyardgrass [7],20
same,"Plant response rating, Ragweed",ragweed [8]; [28],30
same,Ragweed plant response rating,ragweed [8]; [29],0
same,"Plant response rating, Blackgrass",blackgrass [9]; [30],80
same,"Plant response rating, Blackgrass",blackgrass [9]; [31],90
same,"Plant response rating, Galium",galium; [30],100
same,"Plant response rating, Galium",galium; [31],100
same,"Plant response rating, Rice (Flood)",rice,0
same,"Plant response rating, Ragweed",ragweed [10]; [30],40
same,"Plant response rating, Ragweed",ragweed [10]; [31],90
same,"Plant response rating, Wheat",wheat [11]; [28],40
same,Wheat plant response rating,wheat [11]; [29],20
same,"Plant response rating, Pigweed, Palmer","pigweed, palmer [12]; [30]",40
same,"Plant response rating, Pigweed, Palmer","pigweed, palmer [12]; [31]",80
same,"Plant response rating, Corn",corn [13]; [28],60
same,Corn plant response rating,corn [13]; [29],20
same,"Plant response rating, Sedge, Umbrella (Flood)","sedge, umbrella",85
same,"Plant response rating, Foxtail, Green",green foxtail [14]; [30],80
same,"Plant response rating, Foxtail, Green",green foxtail [14]; [31],90
same,"Plant response rating, Oat, Wild","oat, wild [15]; [30]",10
same,"Plant response rating, Oat, Wild","oat, wild [15]; [31]",50
same,"Plant response rating, Wheat",wheat [16]; [30],30
same,"Plant response rating, Wheat",wheat [16]; [31],80
same,"Plant response rating, Corn",corn [17]; [30],30
same,"Plant response rating, Corn",corn [17]; [31],90
same,"Plant response rating, Ducksalad (Flood)",ducksalad,65
same,"Plant response rating, Barnyardgrass",barnyardgrass [18]; [30],70
same,"Plant response rating, Barnyardgrass",barnyardgrass [18]; [31],90
same,"Plant response rating, Horseweed",horseweed; [30],0
same,"Plant response rating, Horseweed",horseweed; [31],20
same,"Plant response rating, Blackgrass",blackgrass [19]; [28],90
same,Blackgrass plant response rating,blackgrass [19]; [29],50
same,"Plant response rating, Soybean",soybean [20]; [28],90
same,Soybean plant response rating,soybean [20]; [29],80
same,"Plant response rating, Oat, Wild","oat, wild [21]; [28]",70
same,"Oat, Wild plant response rating","oat, wild [21]; [29]",30
same,"Plant response rating, Soybean",soybean [22]; [30],100
same,"Plant response rating, Soybean",soybean [22]; [31],100
same,"Plant response rating, Ryegrass, Italian","ryegrass, Italian [23]; [30]",80
same,"Plant response rating, Ryegrass, Italian","ryegrass, Italian [23]; [31]",90
